One compound from ChEMBL document CHEMBL1144075, “New cembranes from the soft coral sarcophyton species” (J Nat Prod, 1999) can be followed below.

The test system of the data set is Oryzias latipes. As to the kind of experiment: Ichthyotoxicity against Oryzias latipes at 20 ug/mL. In kind it is organism-based. The following applies: in vivo.

In the case of `C/C1=C/C[C@@H](C(C)C)/C=C/[C@](C)(O)CC/C=C(\C)CC(=O)C1` [SARTONE E], the Activity entry is recorded as “Non-toxic”.
